Reference: patent US7846901B2, “Method for inhibiting or treating intestinal damage caused by radiotherapy or chemotherapy comprising administering substance-P” (University-Industry Cooperation Group of Kyunghee University, priority 2007, dated 2010)
Entries after “also recorded” stand apart in the source; their conditions may differ. Where no end group is shown, it is not given here.

Tests used:
Type in all cases: in vivo, C57b1/6 mice
crypt cells [1] = experiment: TUNEL assay for apoptosis of crypt cells after gamma ray irradiation
Method: (§1) 8-week-old C57b1/6 mice (Central Lab Animal Inc., Seoul, Korea) were irradiated with gamma rays to establish an animal model of gastrointestinal damage, and gastrointestinal protective and regenerative effects of Substance-P were then examined.
(§2) For this purpose, C57b1/6 mice were divided into two groups, an experimental group and a control group, each consisting of 5 animals (n=5). 100 nM of Substance-P (Cat. No. 05-23-0600, Calbiochem) was injected to the experimental group mice via tail vein, 24 hours prior to gamma ray irradiation. 24 hours later, animals were irradiated with a gamma irradiator at a dose of 7.6 Gy. Immediately after gamma ray irradiation, 100 nM of Substance-P was intravenously injected once more into animals of the experimental group. The control group was given PBS.
4.5 hours, 3 days, and 7 days later, mice of each group were euthanized by CO2 asphyxiation and then received abdominal incision. […]
Dead cells were detected by fluorescence labeling of damaged DNA molecules through TUNEL assay using an In Situ Cell Death Detection Kit (Cat. No. 1 684 795, Roche Molecular Biochemicals).
The tissue section slide was deparaffinized with xylene and hydrated in alcohol. […] Nuclear staining was carried out using 4′,6-diamidino-2-phenylindole (DAPI, Cat. No. D-9542, Sigma) and the stained tissue was examined in a green field of 515 to 565 nm under a fluorescence microscope.

crypt cells [2] = experiment: Brd-U immunohistochemical staining for proliferation of crypt cells after gamma ray irradiation
Method: as §1, §2
(§3) Small intestines were isolated and fixed in a 3.7% formaldehyde solution for tissue fixation, for 1 to 2 days. Following the tissue processing process, the tissues were hardened in a paraffin block. The formalin-fixed paraffin tissues were sectioned to a 5 μm thickness using a microtome and then attached to a coated slide glass which was then dried, followed by TUNEL staining, Brd-U immunostaining and H&E staining. For Brd-U immunostaining, 2 hours prior to sacrifice of mice, 50 mg/kg of 5-bromo-2-deoxyuridine (Brd-U, Cat. No. B-9285, Sigma) was introduced into dividing cells by peritoneal injection.
Proliferative effects of Substance-P on crypt cells were examined by Brd-U immunohistochemical staining.
The tissue section slide was deparaffinized with xylene and hydrated in alcohol. The tissue section was pretreated with 2N HCl for 30 min, and endogenous peroxidase activity was blocked with addition of H2O2 for 10 min. The tissue section was treated with 0.3% Triton X-100 for 5 min to increase cell permeability. Then, 2% serum in a Vector ABC kit (PK-6100, Vector Laboratories Inc.) was added to block the cells. BrdU antibodies (Cat. No. 1 170 376, Roche Molecular Biochemicals) and 2% serum were diluted in a ratio of 6:100, followed by reaction at room temperature for 1 hour. […]

[3] = test system: crypt cells and villi of small intestine; experiment: H&E staining: crypt cell counts and villous heights after gamma ray irradiation
Method: as §1, §2
as §3, with “4.5 hours, 3 days, and 7 days later, mice of each group were euthanized by CO2 asphyxiation and then received abdominal incision. Small” for “Small”
After the tissue section slide was H&E-stained and photographed, crypt cell counts and villous heights were measured and averaged, respectively.

[4] = radiation-induced gastrointestinal damage in mice, vs non-treated control group

Substance-P (RPKPQQFFGLM-NH2; ends and bridges not checked; UniProt P20366 58-68, looked up) [11-amino acid neuropeptide; Cat. No. 05-23-0600, Calbiochem]
apoptosis of crypt stem cells (TUNEL) (crypt cells [1]; 4.5 hours after 7.6 Gy gamma rays, Substance-P 100 nM i.v. 24 h before and immediately after irradiation, vs control group (PBS)): significant reduction in apoptosis of crypt stem cells
apoptotic rate of crypt cells, summary statement (crypt cells [1]; [4]): significantly lower apoptotic rate of crypt cells; also recorded: apoptosis of stem cells is decreased
BrdU staining of dividing crypt cells (crypt cells [2]; Day 1 after gamma ray irradiation, with vs without Substance-P): no significant difference in staining of cells
BrdU staining of dividing crypt cells (crypt cells [2]; Day 3 after gamma ray irradiation): intense staining in large numbers of cells
gastrointestinal recovery through crypt hyperplasia, conclusion from BrdU staining (crypt cells [2]; after gamma ray irradiation (FIG. 2)): earlier gastrointestinal recovery
villous atrophy (villous height) ([3]; Day 3 after irradiation, vs group without Substance-P): less villous atrophy
number of viable crypt cells (crypt cell survival) ([3]; Days 1, 3 and 7 after irradiation (FIG. 3), vs group without Substance-P): higher number of viable crypt cells
recovery of damaged crypt cells and villi / recovery time from gastrointestinal damage, summary statement [3, 4]: faster recovery of damaged crypt cells and villi to a normal state; also recorded: recovery time from gastrointestinal damage is also shortened
